From ChEMBL document CHEMBL2385001, “Synthesis and evaluation of 7-chloro-4-(piperazin-1-yl)quinoline-sulfonamide as hybrid antiprotozoal agents” (Bioorg Med Chem, 2013)
pIC50: −log10 of the molar value.

Tests used:
[1] = Cytotoxicity against human HT-29 cells assessed as growth inhibition at 100 uM after 48 hrs by MTT assay relative to control; type: cell-based; conditions: read-out: GI
[2] = Cytotoxicity against human HT-29 cells assessed as cell viability at 100 uM after 48 hrs by MTT assay relative to control; type: cell-based; conditions: read-out: Activity
[3] = Inhibition of beta-haematin formation after 24 hrs by microtiter plate assay; type: functional
[4] = Hemolytic activity in human RBC at 100 uM after 48 hrs relative to control; type: ADME, cell-based, Erythrocyte; conditions: red blood cells, read-out: Activity
[5] = tested on: Plasmodium falciparum; experiment: Antimalarial activity against chloroquine-resistant Plasmodium falciparum FCR-3 assessed as growth inhibition after 24 hrs by [3H]-hypoxanthine incorporation assay; type: functional; conditions: FCR-3/Gambia
[6] = tested on: Entamoeba histolytica; experiment: Antiamoebic activity against trophozoite stage of Entamoeba histolytica HM-1:IMSS assessed as growth inhibition after 72 hrs by microdilution method; type: functional, organism-based
[7] = Safety index, ratio of cytotoxicity against human HT-29 cells to antiamoebic activity against trophozoite stage of Entamoeba histolytica HM-1:IMSS; type: toxicity, cell-based; conditions: read-out: Selectivity Index
[8] = Safety index, ratio of cytotoxicity against human HT-29 cells to antimalarial activity against chloroquine-resistant Plasmodium falciparum FCR-3; type: toxicity, cell-based; conditions: read-out: Selectivity Index

| SMILES | inhibition at 48 h, 100 µM [1] [%] | viability at 48 h, 100 µM [2] [%] | pIC50 [3] | hemolysis at 48 h, 100 µM [4] [%] | pIC50 [5] | pIC50 [6] | selectivity ratio [7] | selectivity ratio [8] |
| --- | --- | --- | --- | --- | --- | --- | --- | --- |
| O=S(=O)(c1ccccc1)N1CCN(c2ccnc3cc(Cl)ccc23)CC1 | 45 | 55.1 | 4.74 | 0.01 | 5.40 | 4.48 | – | – |
| Cc1ccc(S(=O)(=O)N2CCN(c3ccnc4cc(Cl)ccc34)CC2)cc1 | – | 64.5 | 5.05 | 0.62 | 5.37 | 5.34 | 14 | – |
| CS(=O)(=O)N1CCN(c2ccnc3cc(Cl)ccc23)CC1 | – | 73 | 4.87 | 0.01 | 5.07 | < 4.00 | – | – |
| O=S(=O)(c1ccc(Cl)cc1)N1CCN(c2ccnc3cc(Cl)ccc23)CC1 | – | 61.3 | 4.46 | 1.4 | 5.49 | 4.59 | – | – |
| O=S(=O)(c1cc(Cl)ccc1Cl)N1CCN(c2ccnc3cc(Cl)ccc23)CC1 | – | 63.4 | 4.33 | 2.06 | 5.59 | 4.52 | – | – |
| O=S(=O)(c1ccc2ccccc2c1)N1CCN(c2ccnc3cc(Cl)ccc23)CC1 | – | 59.8 | 4.15 | 0.97 | 5.51 | 4.63 | – | – |
| CC(C)(C)c1ccc(S(=O)(=O)N2CCN(c3ccnc4cc(Cl)ccc34)CC2)cc1 | – | 67.7 | 4.14 | 1.36 | 5.22 | 5.54 | 24 | – |
| COc1ccc(S(=O)(=O)N2CCN(c3ccnc4cc(Cl)ccc34)CC2)cc1 | – | 68.1 | 5.04 | 6.03 | 5.48 | 5.08 | – | – |
| O=[N+]([O-])c1ccccc1S(=O)(=O)N1CCN(c2ccnc3cc(Cl)ccc23)CC1 | 17 | 86.1 | 4.20 | 0.01 | 5.71 | < 4.00 | – | 44 |
| CCCS(=O)(=O)N1CCN(c2ccnc3cc(Cl)ccc23)CC1 | 17 | 67.1 | 5.75 | 0.82 | 5.76 | < 4.00 | – | 39 |
| CC(=O)Nc1ccc(S(=O)(=O)N2CCN(c3ccnc4cc(Cl)ccc34)CC2)cc1 | 17 | 96.8 | 5.05 | 0.83 | 5.94 | 5.02 | – | 84 |
| CC[C@@]1(O)C(=O)OCc2c1cc1n(c2=O)Cc2cc3ccccc3nc2-1 [CAMPTOTHECIN] | 52 | 48.3 | – | – | – | – | – | – |
| C=C[C@H]1CN2CC[C@H]1C[C@H]2[C@H](O)c1ccnc2ccc(OC)cc12 [QUININE] | – | – | 4.66 | 2.14 | 6.77 | – | – | – |
